How the values were obtained:
[1] = system: promastigotes of Leishmania (V.) braziliensis strain MHOM/CO/87/UA301; experiment: MTT viability of L. braziliensis promastigotes; type: cell-based
Experimental: Promastigotes of Leishmania (V.) braziliensis strain MHOM/CO/87/UA301 were isolated from footpad lesions in Balb/C mice previously infected. In the process of maintenance and differentiation of the parasites, the LTI medium (tryptose 15 g/L, yeast extract 5 g/L, liver extract 2 g/L, hemin-NaOH 0.02 g/L, glucose 4 g/L, NaCl 9 g/L, KCl 0.4 g/L Na2HPO4, 7.5 g/L at pH 7.4) supplemented with 10% fetal calf serum and maintained at 29 °C was used.
Briefly, 96-well plates were used, where 2 × 10^6 parasites/mL were seeded. A concentration of 50 μM was used for each compound and an incubation time of 96 h at 29 °C. 3-(4,5-dimethylthiazol-2-yl)-2,5-diphenyl tetrazolium bromide (MTT) 1 μg/mL was added and incubated in darkness for 4 h, acidic isopropanol (4N) was added and the plate was read at 570 nm in a spectrophotometer Synergy HT (Biotek). Miltefosine was used as a reference drug. The EC50 calculation of the selected compound was performed using growth curves. Direct counting was used to monitor the proliferation of parasites, three independent experiments were performed for each concentration of the compounds evaluated. The in vitro evaluations of compounds toxicity by MTT in VERO and BMDM cells follow a methodology described above with some modifications [60].

[2] = system: epimastigotes of Trypanosoma cruzi strain MHOM/VE/92/YBM; experiment: MTT viability of T. cruzi epimastigotes; type: cell-based
[3] = system: BMDM macrophages; experiment: MTT cytotoxicity on BMDM macrophages; type: cell-based; settings: Mus musculus, 72 h
Description: T. cruzi epimastigotes MHOM/VE/92/YBM venezuelan strain were used to test the anti T. cruzi in vitro studies. The strain was maintained in a modified LIT medium with 10% fetal bovine serum (FBS). Mouse bone marrow was used to obtain BMDM macrophages. Mouse fibroblast-conditioned medium L-929 was used for the differentiation and maintenance of BMDM macrophages. We evaluated through a colorimetric method the effect of compounds 8–23 on the promastigotes of L. brasiliensis. Briefly, 96-well plates were used, where 2 × 10^6 parasites/mL were seeded. A concentration of 50 μM was used for each compound and an incubation time of 96 h at 29 °C. 3-(4,5-dimethylthiazol-2-yl)-2,5-diphenyl tetrazolium bromide (MTT) 1 μg/mL was added and incubated in darkness for 4 h, acidic isopropanol (4N) was added and the plate was read at 570 nm in a spectrophotometer Synergy HT (Biotek). Miltefosine was used as a reference drug. The EC50 calculation of the selected compound was performed using growth curves. Direct counting was used to monitor the proliferation of parasites, three independent experiments were performed for each concentration of the compounds evaluated. The in vitro evaluations of compounds toxicity by MTT in VERO and BMDM cells follow a methodology described above with some modifications. The selectivity index was calculated with SI = CC50/EC50, where CC50 was the maximum concentration range of compounds 10, 21–23 used to evaluate cytotoxicity in VERO and BMDM cells. The trypanocidal activity of compounds 8–23 was evaluated on the viability of T. cruzi epimastigotes through a colorimetric method adapted with minor modifications. 2 × 10^6 parasites/mL were seeded in a 96-well plate, adding 50 μM of each derivative dissolved in DMSO (final concentration remained below 1%). The plate was incubated for 96 h at 29 °C. Then, 1 μg/mL of 3-(4,5-dimethylthiazol-2-yl)-2,5-diphenyl tetrazolium bromide (MTT) was added and incubated in darkness for 4 h. After this time, acidic isopropanol (4N) was added and the plate was read at 570 nm in a spectrophotometer Synergy HT (Biotek). Benznidazole was used as a reference drug. The in vitro evaluations of compounds toxicity by MTT in VERO and BMDM cells follow a methodology described above with some modifications. Cells were counted in suspension and seeded at 20 × 10^3 cells/well. The test was carried out in triplicate on 96-well microplates in different concentrations: 50 μM, 100 μM, 200 μM and 300 μM, untreated cells and reference drug (benznidazole) controls.

[4] = system: CCRF-CEM; experiment: MTS antiproliferative assay CCRF-CEM; type: cell-based; settings: Homo sapiens, 72 h of incubation
Description: (§1) The cell lines used were acquired from the American Type Culture Collection (ATCC), CCRF-CEM (T lymphoblastic leukemia), K562 ([…]), U2OS (osteosarcoma), HCT116 (colon carcinoma), A549 (lung adenocarcinoma) and HCT116p53−/− (HCT116 cell line mutated in p53) Horizon Discovery Ltd., (Waterbeach, Cambridge, United Kingdom).
(§2) In our laboratory, IMTM, we generated the daunorubicin-resistant subline of CCRF-CEM cells (CEM-DNR bulk) and paclitaxel-resistant subline K562-TAX, as described previously. […] Both ABC transporters are involved in drug resistance. As a control, human fibroblasts MRC-5 and BJ cell lines were used. […] Adherent cells were passaged using PBS containing 0.25% trypsin plus 0.01% EDTA (ethylenediamine tetraacetic acid) every 2–3 days.
(§3) The antiproliferative activity of compounds was determined using a standard 3-(4,5-dimethylthiazol-2yl)-5-(3-carboxymethoxyphenyl)-2-(4-sulfophenyl)-2H-tetrazolium (MTS) reduction assay on a robotic high throughput screening platform (HighResBio, Boston, MA, USA) following treatment of cells for 3–7 days. The IC50 values were calculated from the appropriate dose–response curves with Dotmatics software (San Diego, CA, USA).

[5] = system: K562; experiment: MTS antiproliferative assay K562; type: cell-based, human; settings: for IC50: 72 h of incubation
Description: as §1, §2, §3

[6] = system: K562-TAX; experiment: MTS antiproliferative assay K562-TAX; type: cell-based, human; settings: 72 h of incubation, paclitaxel-resistant
Description: as §1, §2, §3

[7] = system: HCT-116; experiment: MTS antiproliferative assay HCT116; type: cell-based; settings: Homo sapiens, 72 h of incubation
Description: as §1, §2, §3

[8] = system: HCT116p53−/−; experiment: MTS antiproliferative assay HCT116p53-/-; type: cell-based; settings: Homo sapiens; 72 h of incubation
Description: as §1, §2, §3

[9] = system: U2OS; experiment: MTS antiproliferative assay U2OS; type: cell-based; settings: Homo sapiens, 72 h of incubation
Description: as §1, §2, §3

[10] = system: MRC-5; experiment: MTS assay on non-malignant MRC-5; type: cell-based; settings: MRC5; noncancerous human cell line
Experimental: as §2, §3

[11] = system: BJ; experiment: MTS assay on non-malignant BJ; type: cell-based; settings: noncancerous human cell line
Experimental: as §2, §3

[12] = system: K562 cell line; experiment: Annexin V-FITC/PI flow cytometry apoptosis assay K562; type: cell-based, human; settings: 24 h
Experimental: Cell death was assessed after 24 h incubation with compounds 18 and 22. Apoptosis was analyzed by flow cytometry using annexin V-FITC and propidium iodide (PI). Early apoptosis was defined by annexin V-FITC expression and, necrosis by PI expression, late apoptosis by coexpression of annexin V/PI. Doxorubicin and quercetin were used as positive controls. The results of a typical flow cytometry analysis of both compounds are illustrated in Figure 2 and Figure 3. An increase in early apoptosis and late apoptosis was observed; necrosis was less predominant. The results are summarized in Tables S1 and S2 (Supplementary Materials). The expression of annexin V was different depending on the compound used. K562, A549 cell lines were treated as described by the manufacturer (Santa Cruz Biotechnology), washed, and resuspended in annexin V binding buffer (0.01 M HEPES, 0.14 M NaCl, and 2.5 mM CaCl2) with the subsequent incubation of annexinV-FITC and then PI. An Epics XL cytometer (Beckman Coulter, Indianapolis, IN, USA) was used for the analysis. Untreated cells were the negative controls, and doxorubicin (Dox) (1 μM), and quercetin (QC) (50 μM) were the positive controls. Early apoptosis refers to annexin V expression, late apoptosis, the coexpression of annexin V and PI, and necrosis the sole expression of PI. […] The experiments were performed as described before. To avoid the unwanted effects of DMSO, the concentrations of the compounds were never higher than 100 μM.

SMILES: COc1ccc2c(c1)CC/C(=C\c1cccnc1Oc1ccc(Cl)cc1)C2=O [Compound 22, (E)-2-{[2-(4-Chlorophenoxy)pyridin-3-yl]methylene}-3,4-dihydro-6-methoxynaphthalen-1(2H)-one]
- EC50 ([1]; 72 h, promastigotes): 12.4 ± 1.15 µM
- SIB/Lb selectivity index on L. braziliensis/BMDM ([1]; SI = CC50/EC50): 38
- SIV/Tc selectivity index on T. cruzi/VERO ([2]; SI = CC50/EC50): 20
- selectivity index T. cruzi vs BMDM (CC50/EC50) ([2]; SI = CC50/EC50): 93
- EC50 ([2]; Trypanosoma cruzi, 72 h, epimastigotes): 5.03 ± 0.49 µM
- EC50 [3]: 468 µM
- IC50 [4]: 5.23 ± 0.3 µM
- IC50 [5]: 3.91 ± 0.14 µM
- IC50 ([5]; Homo sapiens, K562, 72 h): 3.91 to 4.33 µM
- times higher cytotoxicity against K562 than K562-TAX ([5]; ratio of IC50 values): 5.5 times
- IC50 [6]: 21.4 ± 4.08 µM
- IC50 ([6]; Homo sapiens, K562-Tax, 72 h): > 21.4 µM
- IC50 [7]: 13 ± 3.61 µM
- IC50 [8]: 33.9 ± 5.63 µM
- IC50 [9]: 8.1 ± 1.71 µM
- IC50 [10]: > 50 µM
- IC50 [11]: > 50 µM
- AV+/IP+ (late apoptosis) ([12]; K562, 5 µM): 1.85%
- AV+/IP- (early apoptosis) ([12]; K562, 5 µM): 20.90%
- AV-/IP+ (necrosis) ([12]; K562, 5 µM): 0.44%
- AV+/IP+ (late apoptosis) ([12]; K562, 10 µM): 77.70%
- AV+/IP- (early apoptosis) ([12]; K562, 10 µM): 21.80%
- AV-/IP+ (necrosis) ([12]; K562, 10 µM): 0.29%
- annexin V-FITC expression ([12]; K562, 10 µM): higher than 50%
